# Test results from ChEMBL document CHEMBL1201862, “PubChem BioAssay data set” (2004).
# Activity calls are given as the source filed them.
# Tests used:
# [1] = Luminescence Cell-Based Dose Response HTS to Identify Activators of Luciferase Translation or Activity in H4 […] Cells. [Related pubchem assays: 1829 (Project Summary), 1814 (Primary HTS)]; type: functional
# [2] = Luminescence Cell-Based Dose Confirmation HTS to Identify Activators of 5'UTR Stem-Loop Driven Alpha-Synuclein mRNA Translation in H4 Neuroglioblastoma Cells. [Related pubchem assays: 1829 (Project Summary), 1814 (Primary HTS)]; type: functional
# [3] = system: H4; assay: Luminescence Cell-Based Dose Response HTS to Identify Activators of 5'UTR Stem-Loop Driven Prion Protein mRNA Translation in H4 Neuroglioblastoma Cells. [Related pubchem assays: 1829 (Project Summary), 1814 (Primary HTS)]; type: functional; settings: Homo sapiens
# [4] = growth suppression of beta-catenin-knockout colon cells, dose response, cell-based, HCT116, human colon tumor (AID 1045); type: functional;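 note: HCT116 colon tumor cells with beta catenin knocked out; cells exposed to compound for 60 hours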
# [5] = growth suppression of PTEN-null colon cells, dose response, cell-based, HCT116 PTEN knockout (AID 1047); type: functional;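 note: HCT116 colon tumor cells with PTEN knocked out; cells exposed to compound for 60 hours before readout; potency for loss of cell viability measured by luminescence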
# [6] = molecular target: Cytochrome P450 2C19 (Homo sapiens, UniProt P33261); assay: Cytochrome panel assay with activity outcomes. Panel member name: p450-cyp2c19 Compounds with AC50 equal or less than 10 uM are considered active; type: functional
# [7] = molecular target: Cytochrome P450 2C9 (Homo sapiens, UniProt P11712)
# [8] = molecular target: Cytochrome P450 2D6 (Homo sapiens, UniProt P10635)
# [9] = Luminescence Cell-Based Dose Retest to Confirm Inhibitors of Cancer Stem Cells. [Related pubchem assays (depositor defined):AID2717, AID2721]; type: functional; settings: Homo sapiens
# [10] = molecular target: T1, Cytochrome P450 1A2 (Homo sapiens, UniProt P05177);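 note: PubChem cytochrome P450 panel assay, CYP1A2 panel member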
# T1 sequence (P05177 whole entry): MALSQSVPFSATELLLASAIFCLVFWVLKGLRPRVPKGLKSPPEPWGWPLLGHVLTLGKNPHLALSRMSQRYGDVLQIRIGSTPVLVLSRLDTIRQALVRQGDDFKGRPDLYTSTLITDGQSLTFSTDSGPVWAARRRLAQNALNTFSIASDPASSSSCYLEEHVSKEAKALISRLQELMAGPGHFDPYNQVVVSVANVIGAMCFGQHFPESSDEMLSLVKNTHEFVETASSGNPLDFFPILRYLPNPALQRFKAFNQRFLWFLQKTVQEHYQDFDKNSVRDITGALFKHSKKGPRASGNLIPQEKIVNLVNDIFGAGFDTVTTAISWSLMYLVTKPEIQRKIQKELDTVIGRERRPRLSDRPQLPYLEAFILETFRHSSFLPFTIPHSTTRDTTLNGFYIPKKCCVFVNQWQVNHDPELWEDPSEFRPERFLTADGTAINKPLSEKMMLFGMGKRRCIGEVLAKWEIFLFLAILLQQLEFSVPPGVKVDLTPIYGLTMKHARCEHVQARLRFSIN
# Sequence of Cytochrome P450 2C19 (P33261 whole entry): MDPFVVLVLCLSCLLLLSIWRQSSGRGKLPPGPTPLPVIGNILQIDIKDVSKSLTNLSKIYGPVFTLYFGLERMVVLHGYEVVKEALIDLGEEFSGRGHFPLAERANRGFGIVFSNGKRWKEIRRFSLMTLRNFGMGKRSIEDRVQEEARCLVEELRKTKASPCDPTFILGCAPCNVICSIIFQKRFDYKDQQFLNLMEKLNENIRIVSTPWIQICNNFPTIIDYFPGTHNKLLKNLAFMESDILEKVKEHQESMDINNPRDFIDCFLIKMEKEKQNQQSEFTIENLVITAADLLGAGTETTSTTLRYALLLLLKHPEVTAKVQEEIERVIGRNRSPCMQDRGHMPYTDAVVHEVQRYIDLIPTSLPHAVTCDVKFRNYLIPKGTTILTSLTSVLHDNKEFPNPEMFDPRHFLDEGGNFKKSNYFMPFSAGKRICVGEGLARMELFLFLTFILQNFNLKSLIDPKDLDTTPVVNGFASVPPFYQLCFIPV
# Sequence of Cytochrome P450 2C9 (P11712 whole entry): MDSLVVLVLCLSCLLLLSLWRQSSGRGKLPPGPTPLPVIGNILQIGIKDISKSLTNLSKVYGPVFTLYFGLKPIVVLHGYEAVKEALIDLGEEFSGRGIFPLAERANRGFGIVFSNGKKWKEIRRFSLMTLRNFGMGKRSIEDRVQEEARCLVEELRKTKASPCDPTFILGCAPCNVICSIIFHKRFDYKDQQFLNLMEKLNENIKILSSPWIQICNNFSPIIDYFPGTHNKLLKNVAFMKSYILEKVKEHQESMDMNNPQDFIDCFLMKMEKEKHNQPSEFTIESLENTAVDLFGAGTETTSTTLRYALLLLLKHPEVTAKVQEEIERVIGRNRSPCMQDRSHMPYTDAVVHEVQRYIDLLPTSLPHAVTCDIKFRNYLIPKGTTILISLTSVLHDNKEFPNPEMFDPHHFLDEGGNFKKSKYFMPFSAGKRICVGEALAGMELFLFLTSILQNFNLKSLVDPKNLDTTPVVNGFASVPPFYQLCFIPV
# Sequence of Cytochrome P450 2D6 (P10635 whole entry): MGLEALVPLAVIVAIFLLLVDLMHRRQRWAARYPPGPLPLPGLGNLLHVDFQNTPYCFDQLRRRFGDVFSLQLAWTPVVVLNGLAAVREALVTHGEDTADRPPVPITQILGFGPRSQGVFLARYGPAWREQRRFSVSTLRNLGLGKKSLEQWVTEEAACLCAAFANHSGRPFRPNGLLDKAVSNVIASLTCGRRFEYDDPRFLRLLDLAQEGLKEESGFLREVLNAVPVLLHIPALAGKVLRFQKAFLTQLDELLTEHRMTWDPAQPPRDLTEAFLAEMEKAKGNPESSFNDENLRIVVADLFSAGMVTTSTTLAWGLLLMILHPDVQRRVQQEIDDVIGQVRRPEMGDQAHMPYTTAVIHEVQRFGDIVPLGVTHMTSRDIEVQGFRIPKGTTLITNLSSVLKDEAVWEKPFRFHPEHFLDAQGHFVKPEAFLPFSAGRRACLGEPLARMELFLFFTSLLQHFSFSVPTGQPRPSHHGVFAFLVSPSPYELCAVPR
compound,measurement,setting,value
Clc1ccccc1-c1nnc2sc(-c3ccc4c(c3)OCO4)nn12,EC50,[1],10.9 µM (active)
same,EC50,[2],> 120 µM (not active)
same,EC50,[3],57.6 µM (inconclusive)
CCCCSc1ncc(C(=O)OCC)c(N)n1,EC50,[1],0.125 µM (active)
O=C(CSc1nnc(-c2ccccn2)o1)Nc1cccc(Cl)c1,EC50,[1],4.83 µM (active)
same,EC50,[3],> 120 µM (not active)
Cc1ccc(C23CC4CC(CC(NC(=O)N5CCN(C)CC5)(C4)C2)C3)cc1,EC50,[4],17.7 µM (active)
same,EC50,[5],18 µM (active)
COc1ncc2nc(-c3cccs3)c(=O)n(CCc3ccccc3)c2n1,AC50,[6]; read-out: AC50,2.51 µM (inconclusive)
Cc1noc(C)c1C(=O)N1CCC2(CCCN(CC(C)C)C2)CC1,AC50,[6]; read-out: AC50,39.8 µM (inconclusive)
same,AC50,[7],39.8 µM (inconclusive)
O=C(O)c1ccccc1/C=N\N=C1c2ccccc2-c2ccccc21,AC50,[7],7.94 µM (inconclusive)
C/C(=N\NC(=O)C1=NNC(=O)C1C)c1cccs1 (stereo unspecified),EC50,[1],> 120 µM (not active)
same,EC50,[2],13 µM (active)
same,EC50,[3],29.9 µM (active)
CCC1CCCCN1C(=O)CSc1nc2c3ccccc3nc-2c(O)n1C (stereo unspecified),EC50,[4],21.2 µM (active)
same,EC50,[5],21.9 µM (active)
O=C(Cn1ccs/c1=N/C(=O)C(F)(F)F)c1ccccc1,EC50,[1],47.9 µM (active)
same,EC50,[2],56.9 µM (active)
same,EC50,[3],81.7 µM (inconclusive)
c1ccc(N2CCC3(CCNCC3)CC2)cc1,AC50,[8],15.8 µM (inconclusive)
Cc1cccn2c(/C=N/OCc3ccc(F)cc3)c(-c3ccc(Cl)cc3)nc12,AC50,[6]; read-out: AC50,3.16 µM (inconclusive)
CCc1cc2c(=O)c(-c3ccc4c(c3)OCCO4)c(C)oc2cc1OS(C)(=O)=O,EC50,[4],28.1 µM (active)
same,EC50,[5],21.3 µM (active)
COc1ccc(CCNC(=O)CCN2C(=O)C(C)Oc3ccc(C)cc32)cc1OC (stereo unspecified),AC50,[7],5.62 µM (inconclusive)
Cc1ccc(S[C@@H](CCN2CC[C@H](C(C)(C)C)CCC2=O)c2ccccc2)cc1,AC50,[9],2.64 µM (active)
Clc1ccc([C@@H](OCCN2CCCCC2)c2ccccc2)cc1,AC50,[6]; read-out: AC50,6.31 µM (inconclusive)
same,AC50,[10],12.6 µM (inconclusive)
COc1ccccc1CNS(=O)(=O)c1ccc2ncc(C(=O)O)c(O)c2c1,AC50,[7],11.2 µM (inconclusive)
same,AC50,[10],10 µM (inconclusive)
O=c1c(-c2ccc(F)c(F)c2)nc2cncnc2n1Cc1ccccc1,AC50,[6]; read-out: AC50,0.0501 µM (inconclusive)
c1ccc(C(c2ccccc2)N2CCC3(CCNCC3)CC2)cc1,AC50,[7],31.6 µM (inconclusive)
CC(C)(C)c1c2c(c(C(C)(C)C)c3c1OCN(Cc1ccccc1)C3)OCN(Cc1ccccc1)C2,AC50,[6],inconclusive
CC(C)OC(=O)C(C#N)c1nc2ccccc2nc1N1CCN(Cc2ccccc2)CC1 (stereo unspecified),AC50,[8],0.112 µM (inconclusive)
CC(=O)OC[C@@H]1O[C@@H](O/N=C2/C[C@@H](O)[C@@H](O)[C@@H]3[C@@H]4C(=O)N(C[C@@H]5CCCO5)C(=O)[C@H]4CC[C@H]23)[C@H](OC(C)=O)[C@H](OC(C)=O)[C@@H]1OC(C)=O,AC50,[8],5.01 µM (inconclusive)
CCc1c(C)nc2ccc(Br)cc2c1Cl,AC50,[7],11.2 µM (inconclusive)
O=C(CSCc1cccc(Cl)c1)Nc1ccccc1-c1ccccc1,AC50,[9],21.7 µM (active)
Cc1ccc(NC(=O)Cc2nc(CSc3nnc(-c4ccc5c(c4)OCO5)o3)cs2)cc1,EC50,[1],53.6 µM (active)
same,EC50,[2],82.5 µM (active)
same,EC50,[3],6.97 µM (active)
COc1ccccc1-c1cncnc1Nc1ccc(F)cc1,AC50,[8],15.8 µM (inconclusive)
